{"source": "PubChem BioAssay AID1259407", "about": "(Chemical Carcinogenesis Research Information System (CCRIS), 2018)", "system": "CCRIS mutagenicity, Ames/micronucleus/aberration tests", "test": "CCRIS mutagenicity studies", "key": {"[1]": {"conditions": "Test System: AMES SALMONELLA TYPHIMURIUM, Strain/Indicator: TA100, Metabolic Activation: NONE, Method: PREINCUBATION"}}, "note": "The source made the active and inactive calls. No rule for the calls is given here."}
{"smiles": "COC(=O)NC(=S)Nc1ccccc1NC(=S)NC(=O)OC", "values": [{"measurement": "mutagenic call", "setting": "Test System: AMES SALMONELLA TYPHIMURIUM, Strain/Indicator: TA97, Metabolic Activation: HAMSTER, LIVER, S-9, AROCLOR 1254 (10 OR 30%), Method: PREINCUBATION", "value": "inactive; negative"}, {"measurement": "mutagenic call", "setting": "Test System: AMES SALMONELLA TYPHIMURIUM, Strain/Indicator: TA97, Metabolic Activation: NONE, Method: PREINCUBATION", "value": "inactive; negative"}, {"measurement": "mutagenic call", "setting": "Test System: AMES SALMONELLA TYPHIMURIUM, Strain/Indicator: TA97, Metabolic Activation: RAT, LIVER, S-9, AROCLOR 1254 (10 OR 30%), Method: PREINCUBATION", "value": "inactive; negative"}, {"measurement": "mutagenic call", "setting": "Test System: AMES SALMONELLA TYPHIMURIUM, Strain/Indicator: TA98, Metabolic Activation: HAMSTER, LIVER, S-9, AROCLOR 1254 (10 OR 30%), Method: PREINCUBATION", "value": "inactive; negative"}, {"measurement": "mutagenic call", "setting": "Test System: AMES SALMONELLA TYPHIMURIUM, Strain/Indicator: TA98, Metabolic Activation: HAMSTER, LIVER, S-9, AROCLOR 1254 (30%), Method: PREINCUBATION", "value": "active; positive"}, {"measurement": "mutagenic call", "setting": "Test System: AMES SALMONELLA TYPHIMURIUM, Strain/Indicator: TA98, Metabolic Activation: NONE, Method: PREINCUBATION", "value": "inactive; negative"}, {"measurement": "mutagenic call", "setting": "Test System: AMES SALMONELLA TYPHIMURIUM, Strain/Indicator: TA98, Metabolic Activation: RAT, LIVER, S-9, AROCLOR 1254 (10 OR 30%), Method: PREINCUBATION", "value": "inactive; negative"}, {"measurement": "mutagenic call", "setting": "Test System: AMES SALMONELLA TYPHIMURIUM, Strain/Indicator: TA98, Metabolic Activation: RAT, LIVER, S-9, AROCLOR 1254 (30%), Method: PREINCUBATION", "value": "inactive; negative"}, {"measurement": "mutagenic call", "setting": "Test System: AMES SALMONELLA TYPHIMURIUM, Strain/Indicator: TA100, Metabolic Activation: HAMSTER, LIVER, S-9, AROCLOR 1254 (10 OR 30%), Method: PREINCUBATION", "value": "inactive; negative"}, {"measurement": "mutagenic call", "setting": "Test System: AMES SALMONELLA TYPHIMURIUM, Strain/Indicator: TA100, Metabolic Activation: HAMSTER, LIVER, S-9, AROCLOR 1254 (30%), Method: PREINCUBATION", "value": "active; positive"}, {"measurement": "mutagenic call", "setting": "[1]", "value": "inactive; negative"}, {"measurement": "mutagenic call", "setting": "Test System: AMES SALMONELLA TYPHIMURIUM, Strain/Indicator: TA100, Metabolic Activation: RAT, LIVER, S-9, AROCLOR 1254 (10 OR 30%), Method: PREINCUBATION", "value": "inactive; negative"}, {"measurement": "mutagenic call", "setting": "Test System: AMES SALMONELLA TYPHIMURIUM, Strain/Indicator: TA1535, Metabolic Activation: HAMSTER, LIVER, S-9, AROCLOR 1254 (10 OR 30%), Method: PREINCUBATION", "value": "inactive; negative"}, {"measurement": "mutagenic call", "setting": "Test System: AMES SALMONELLA TYPHIMURIUM, Strain/Indicator: TA1535, Metabolic Activation: NONE, Method: PREINCUBATION", "value": "inactive; negative"}, {"measurement": "mutagenic call", "setting": "Test System: AMES SALMONELLA TYPHIMURIUM, Strain/Indicator: TA1535, Metabolic Activation: RAT, LIVER, S-9, AROCLOR 1254 (10 OR 30%), Method: PREINCUBATION", "value": "inactive; negative"}, {"measurement": "mutagenic call", "setting": "Test System: AMES SALMONELLA TYPHIMURIUM, Strain/Indicator: TA1537, Metabolic Activation: HAMSTER, LIVER, S-9, AROCLOR 1254 (30%), Method: PREINCUBATION", "value": "inactive; negative"}, {"measurement": "mutagenic call", "setting": "Test System: AMES SALMONELLA TYPHIMURIUM, Strain/Indicator: TA1537, Metabolic Activation: NONE, Method: PREINCUBATION", "value": "inactive; negative"}, {"measurement": "mutagenic call", "setting": "Test System: AMES SALMONELLA TYPHIMURIUM, Strain/Indicator: TA1537, Metabolic Activation: RAT, LIVER, S-9, AROCLOR 1254 (30%), Method: PREINCUBATION", "value": "inactive; negative"}]}
{"smiles": "CCC(CC)[N+](=O)[O-]", "values": [{"measurement": "mutagenic call", "setting": "[1]", "value": "inactive; negative"}, {"measurement": "mutagenic call", "setting": "Test System: AMES SALMONELLA TYPHIMURIUM, Strain/Indicator: TA100, Metabolic Activation: RAT, LIVER, S-9, AROCLOR, Method: PREINCUBATION", "value": "inactive; negative"}, {"measurement": "mutagenic call", "setting": "Test System: AMES SALMONELLA TYPHIMURIUM, Strain/Indicator: TA102, Metabolic Activation: NONE, Method: PREINCUBATION", "value": "inactive; negative"}, {"measurement": "mutagenic call", "setting": "Test System: AMES SALMONELLA TYPHIMURIUM, Strain/Indicator: TA102, Metabolic Activation: RAT, LIVER, S-9, AROCLOR, Method: PREINCUBATION", "value": "inactive; negative"}, {"measurement": "mutagenic call", "setting": "Test System: UDS RAT HEPATOCYTES, Strain/Indicator: THY INCORP, Metabolic Activation: NONE", "value": "active; positive"}]}
{"smiles": "COC(=O)c1cc2c([nH]c3ccc([N+](=O)[O-])cc32)c(-c2ccccc2)n1", "values": [{"measurement": "mutagenic call", "setting": "Test System: AMES SALMONELLA TYPHIMURIUM, Strain/Indicator: TA98(NR), Metabolic Activation: NONE, Method: STANDARD PLATE", "value": "inactive; negative"}, {"measurement": "mutagenic call", "setting": "Test System: AMES SALMONELLA TYPHIMURIUM, Strain/Indicator: TA98(NR), Metabolic Activation: RAT, LIVER, S-9, AROCLOR 1254, Method: STANDARD PLATE", "value": "active; positive"}]}
{"smiles": "CC(=O)OCC(=O)[C@@]1(OC(C)=O)CC[C@H]2[C@@H]3C[C@@H](F)C4=CC(=O)C(Br)=C[C@]4(C)[C@@]3(F)[C@@H](O)C[C@@]21C", "values": [{"measurement": "mutagenic call", "setting": "Test System: AMES SALMONELLA TYPHIMURIUM, Strain/Indicator: TA98, Metabolic Activation: NONE", "value": "inactive; negative"}, {"measurement": "mutagenic call", "setting": "Test System: AMES SALMONELLA TYPHIMURIUM, Strain/Indicator: TA98, Metabolic Activation: S-9", "value": "inactive; negative"}, {"measurement": "mutagenic call", "setting": "Test System: AMES SALMONELLA TYPHIMURIUM, Strain/Indicator: TA100, Metabolic Activation: NONE", "value": "inactive; negative"}, {"measurement": "mutagenic call", "setting": "Test System: AMES SALMONELLA TYPHIMURIUM, Strain/Indicator: TA100, Metabolic Activation: S-9", "value": "inactive; negative"}, {"measurement": "mutagenic call", "setting": "Test System: AMES SALMONELLA TYPHIMURIUM, Strain/Indicator: TA1535, Metabolic Activation: NONE", "value": "inactive; negative"}, {"measurement": "mutagenic call", "setting": "Test System: AMES SALMONELLA TYPHIMURIUM, Strain/Indicator: TA1535, Metabolic Activation: S-9", "value": "inactive; negative"}, {"measurement": "mutagenic call", "setting": "Test System: AMES SALMONELLA TYPHIMURIUM, Strain/Indicator: TA1537, Metabolic Activation: NONE", "value": "inactive; negative"}, {"measurement": "mutagenic call", "setting": "Test System: AMES SALMONELLA TYPHIMURIUM, Strain/Indicator: TA1537, Metabolic Activation: S-9", "value": "inactive; negative"}, {"measurement": "mutagenic call", "setting": "Test System: AMES SALMONELLA TYPHIMURIUM, Strain/Indicator: TA1538, Metabolic Activation: NONE", "value": "inactive; negative"}, {"measurement": "mutagenic call", "setting": "Test System: E. COLI, Strain/Indicator: WP2, Metabolic Activation: NONE", "value": "inactive; negative"}, {"measurement": "mutagenic call", "setting": "Test System: E. COLI, Strain/Indicator: WP2, Metabolic Activation: S-9", "value": "inactive; negative"}, {"measurement": "mutagenic call", "setting": "Test System: E. COLI, Strain/Indicator: WP2 UVRA, Metabolic Activation: NONE", "value": "inactive; negative"}, {"measurement": "mutagenic call", "setting": "Test System: E. COLI, Strain/Indicator: WP2 UVRA, Metabolic Activation: S-9", "value": "inactive; negative"}]}
